# According to US12629390B2, “Stabilized amorphous calcium carbonate for treatment of neurological, muscular and infertility diseases or conditions” (AMORPHICAL LTD., priority 2016, dated 2026):
# Columns and labels:
# MBA-13 cells = assay: Alizarin red staining of MBA13 stem cells differentiating to osteoblasts; format: cell-based; settings: 10 days in culture
# Procedure: Two days following thawing, MBA-13 cells (received from Prof. Dov Zipori, Weizmann Institute of Science) were re-suspended in recombinant trypsin solution and seeded on a 96 wells plate, (Day “0”) in a concentration of 1×10^4 cells/well using MSC Nutristem® XF basal medium (Biological Industries, cat #05-200-1A) supplemented with Mesenchymal stem cells (MSC) supplement mix medium (Biological Industries cat #05-201-06) in a ratio of 50 ml:300 μl. […] Row G in the plate was treated with MSCgo medium (total 1.488 mM calcium). Row H of the plate was treated with MSC NutriStem® XF nutrient basal medium+supplement mix (total 1.488 mM calcium). On day 4, medium was exchanged with fresh preparations of ACC. […] Once the cells were fixated, two types of staining reagents were used to stain extracellular calcium or bone deposition in order to estimate osteoblasts functionality: (i) Alizarin red (Sigma A55333) and (ii) Alkaline Phosphatase (DAKO BCIP/NBT substrate system […]) as following: Alizarin red staining procedure-pH was adjusted to 4.2. Cells were washed twice with PBS and fixed with cold methanol for 5 minutes and then washed again with PBS. […] Following staining incubation, the samples were washed with water 2-3 times to remove unspecific staining.
# [1] = system: spinal cord-dorsal root ganglia (SC-DRG) slices; assay: nerve fiber sprouting from SC-DRG co-cultures; format: cell-based, rat; settings: calcium preparation at Ca2+ 2 mM; after 4 days of cultivation; portion of explants (out of 6)
# Procedure: Neural and Vascular Reconstruction Gel ([…] Labs proprietary) is composed of two main components: high molecular hyaluronic acid (HA, 3×10^6 Da, BTG, Israel) and laminin (Sigma). […] The gel has the texture of a viscous liquid, it adheres easily and successfully the embedded cells or explants to the plastic or glass substratum, and enabled nerve fiber outgrowth in a 3D pattern. All the experiments were carried out and authorized by the local ethics committee recognized by the Israeli authorities for animal experimentation. Stationary organotypic cultures of dorsal root ganglia (DRG) and spinal cord (SC) as well as cultures of dissociated brain cells were prepared from rat fetuses (15 days of gestation, Lewis inbred, Harlan, Israel). Immediately after dissection, the isolated tissues were cut with a […] tissue chopper into small slices (of 400 μm thickness). In these studies, two tissue culture strategies were used. […] In the second method, the tissue slices were further dissociated with a trypsin-EDTA solution for 30 min, and washed with a culture medium. Subsequently, the dissociated cells were added to a suspension of chitosan powder or gastrolith powder (micro carriers, MCs) and incubated in suspension at 37° C. for 4 days. […] Calcium source were as following: ACC-Etidronic Acid (ACC-ET) (fresh suspension); ACC-Phosphoserine (ACC-PS) (fresh suspension); Gastrolith (dissolved with 0.1 M HCl and then neutralized with NaOH 1M); gastrolith powder; […] The cultures were monitored by daily phase contrast microscopic observations starting from 24 hours after setting the cultures onward. Suspensions of fresh ACC preparations consisted of particles forming a stable suspension. The gastrolith is a natural ACC isolated from crabs, and can be purchased only as a dry powder. In this form, its other characteristic components (such as calcium ions and proteins) are not available to the cells. In order to increase their bioavailability, the gastrolith powder was dissolved in 0.1 M HCl (which mimics the acidity which exists in the stomach) and then neutralized with 1M NaOH. […] The specimens were then incubated with rabbit anti-neurofilament antibodies (NF, Novus Biologicals, 1:500) to visualize the neurite outgrowth. […] Finally, the samples were rinsed again with wash buffer, and mounted with mounting medium (Immco Diagnostic, USA).
# mdx cell line = assay: myotube formation, CK activity and contraction in mdx cell line; format: cell-based, mice; settings: final Ca2+ 2 mM in Fusion Medium
# Procedure: Cells from the Mdx cell line were seeded in a Gelatin coated 12 wells culture plate, 3×10^4 cells/well containing 1 mL of Proliferation Medium. Two days later (˜66% confluence), the medium was changed to Fusion Medium which was changed twice a week. The various calcium preparations were separately added to the Fusion Medium according to the treatment described in Table 3. Cultures were enriched with the various calcium preparations, at Ca^2+ concentration of 1 mM. Since the medium already contained 1 mM of calcium ions, then the final concentration of Ca2+ was of 2 mM.
# The effects of the tested calcium preparations on cell proliferation, fusion to form myotubes and muscle contraction were monitored by daily phase contrast microscopic observation. At predetermined days, cultures were fixed in methanol for 20 minutes and then stained with Giemsa in order to evaluate the number of myotubes formed with time in cultures.
# At predetermined days, cells were collected from culture wells (using a rubber policeman) and kept in 1 mL PBS (without Ca^2+) at −70° C. until analyzed. For CK measurement cell samples were thawed and physically lysed using a sonicator, to release the CK from muscle myotubes. CK concentration was determined using Creatine Kinase Activity Assay Kit (CK-NAC REAGENT SET, CURTISS, CHEM-INDEX INC, Hialeah, FL, USA).
# [2] = system: healthy skeletal muscle cultures; assay: myotube formation and contraction in healthy skeletal muscle cultures; format: cell-based, rat; settings: added at 1 mM (final Ca2+ 2 mM)
# Procedure: Stationary skeletal muscle cultures were prepared from healthy 1 day new born rat (Sprague Dawley, Harlan, Israel). The muscle tissue was dissected from posterior legs and was thoroughly minced. Digestion was performed with Trypsin-EDTA while gentle trituration. After 30 min the supernatant, containing dissociated cells, was collected and a fresh Trypsin-EDTA was added. This procedure was repeated two more times. Then, all supernatants were pooled, centrifuged, and the cell pellet was re-suspended in Proliferation Medium. Cells were seeded in a Gelatin coated 12 wells culture plates, 1×10^5 cells/well containing 1 mL of Proliferation Medium. Two days later, the medium was changed to Fusion Medium, which was then changed twice a week. The cultures were monitored by daily phase contrast microscopic observations from 24 hours after setting the cultures and onward.
# Stock solution of 1% porcine gelatin in water, was sterilized by autoclave. Once cooled, 500 μl of the solution were added to each well of the 12-wells culture plat. After incubation for 20 min at room temperature, the excess solution was removed, and the cells were seeded.
# For the proliferation stage, cells were cultured in: DMEM/F12 (containing 1 mM Ca^2+) +10% FBS, 25 μg/mL Gentamycin, and 2 mM L-Glutamine.
# For the fusion stage the Proliferation Medium was changed with Fusion Medium, which was prepared as following: DMEM/F12 (containing 1 mM Ca2+), 2% horse serum (HS), 2 mM L-Glutamine, 25 μg/mL Gentamycin, and 4 units/100 mL Insulin (all purchased from Biological-Industries, Israel).
# Control cultures were grown without further added calcium, or cultures enriched with free (soluble) stabilizer. The experiment was blinded by marking the various calcium preparations with arbitrary numerals only.
# The components were added in one of the following ways: (i) aqueous suspensions of dry material; (ii) aqueous suspension of fresh material (before drying), or (iii) dissolved with HCl (to mimic the acidity which exists in the stomach. After dissolving was accomplished, the formed solutions were neutralized with 1M NaOH).
smiles,measurement,setting,value
"[Ca+2].[Cl-].[Cl-] [CaCl2, calcium chloride]",Alizarin Red staining signal,"MBA-13 cells; additional 1 mM calcium in MSCgo rapid osteogenic medium, gelatin coating",weak signal
same,large calcium deposition plaques,MBA-13 cells; additional 1 mM calcium,not observed
same,Cultures with axonal regeneration (%),[1],50%
same,"muscle contractions observed, day after seeding",mdx cell line,≥ 10 days
same,muscle fibers after 7 days,[2],"fewer, thinner and shorter muscle fibers"
same,"early formation of many myotubes, time of cultivation",[2]; dry powder suspended in water,later
